# Laboratory results from PMC5471438, “Linaclotide activates guanylate cyclase‐C/cGMP/protein kinase‐II‐dependent trafficking of CFTR in the intestine” (Physiological Reports, 2017).
# Entries after “also recorded” stand apart in the source; their conditions may differ.
# How the values were obtained:
# CFTR [1] = experiment: Surface biotinylation of CFTR in rat jejunum enterocytes after in vivo loop treatment; details: linaclotide 5 μg/mL/loop, 30 min in vivo, vs saline and untreated, mean ± SEM (n = 4)
# GC‐C [2] = experiment: cGMP in human intestinal mucosa tissues and supernatants; details: human jejunum, ileum, ascending colon mucosa, linaclotide 1 μmol/L, 30 and 60 min, 37°C, IBMX 1 mmol/L, EIA, mean ± SD (n = 4)
# [3] = system: rat proximal colonic mucosa; experiment: Transepithelial short circuit current (Isc) across rat proximal colonic mucosa, Ussing chamber; parameters: species or system rat (Sprague–Dawley); details: rat proximal colonic mucosa, linaclotide 6 nmol/L and 100 nmol/L, apical; mean ± SEM (n = 4)
# mouse colonic mucosa = details: apical and basolateral membrane, ref Silos‐Santiago et al. 2013, Tchernychev et al. 2015; cited from earlier work
# From the text: (§1) While the increase in intracellular cGMP following ligand activation of GC‐C is well established, the efflux of cGMP from enterocytes is not well studied.
# rat colonic mucosa = details: apical and basolateral membrane, ref Silos‐Santiago et al. 2013, Tchernychev et al. 2015; cited from earlier work
# From the text: as §1
# [4] = via extracellular cGMP; ref Castro et al. 2013; Silos‐Santiago et al. 2013; Hannig et al. 2014; cited from earlier work
# From the text: as §1
# Caco‐2 cell line = details: human colonic Caco‐2 cell line; ref Castro et al. 2013; Silos‐Santiago et al. 2013; cited from earlier work
# From the text: as §1
# CFTR [5] = experiment: Confocal immunofluorescence of CFTR in rat intestine; format: in vivo; details: linaclotide 5 μg, 30 min
# Method: All animal studies were approved by the Institutional Animal Care and Use Committee of Yale University School of Medicine. Briefly, male Sprague–Dawley rats (200–250 g, Charles River Laboratories) were fasted overnight with access to drinking water ad libitum. Anesthesia was performed with Inactin® (Thiobutabarbital sodium salt hydrate, 120 mg/kg/i.p.). The jejunal, ileal, and proximal colonic loops (5 cm length) were prepared using sutures. Loops were instilled either with normal saline (pH7.4, 37°C) (1 mL/loop) or linaclotide (5 μg/mL/loop) for 30 min. At the end of the study, animals were euthanized with Inactin (200 mg/kg/i.p.).
# After completion of treatment either with normal saline or linaclotide for 30 min, intestinal segments were immediately removed and briefly rinsed with ice‐cold PBS. Tissues were cut into ~2‐mm‐thick rings, fixed in 2% paraformaldehyde in PBS, pH 7.4 for 1 h at room temperature, rinsed with PBS and cryoprotected in 30% sucrose overnight. Multiple tissue samples were processed under identical conditions by the utilization of tissue arrays as previously described (Jakab et al. 2011). […] Immunolabeled sections were stored at 4°C and examined on Zeiss LSM 710 DUO laser scanning confocal microscope outfitted with a Mai‐Tai laser and electronics capable of spectrally separating fluorescence emission profiles. […]
# [6] = Stability of linaclotide in human mucosa tissue supernatants by LC-MS; details: human intestinal mucosa supernatants, 1 μmol/L, 30 and 60 min incubation, 37°C
# CFTR [7] = experiment: Surface biotinylation of CFTR in T84 cells; format: cell-based, human; details: linaclotide 1 μmol/L and 3.27 μmol/L, 30 min
# [8] = system: rat proximal colonic mucosa; parameters: method as in 2 sources, one per row (each row's own in cited_ref): ref Tchernychev et al. 2015 ||| ref Vaandrager et al. 1997; details: rat proximal colon / colonic epithelium; ref Tchernychev et al. 2015; read-out: EC50 for transepithelial ion current; cited from earlier work
# C2BBe cells = experiment: cGMP synthesis in C2BBe cells; format: cell-based, human
# T84 cells = experiment: cGMP synthesis in T84 cells; format: cell-based, human
# cGKII (PKGII) = experiment: VASP Ser239 phosphorylation in T84 cells, Western blot; format: cell-based, human; details: linaclotide 1 and 3.27 μmol/L, 30 min, 8Br‐cGMP 0.2 and 1 mmol/L positive control
# Method: C2BBe or T84 cells were homogenized in TGH lysis buffer [25 mmol/L HEPES, 10% (vol/vol) glycerol, 1% (vol/vol) Triton‐ × 100, pH 7.4] containing protease inhibitors (10 nmol/L iodoacetamide, 1 mmol/L phenylmethylsulfonyl fluoride (PMSF), 2 μg/mL leupeptin) for 30 min on ice. Homogenates were solubilized, subject to centrifugation at 13,200 g for 15 min at 4°C, and cleared supernatants were recovered. Protein concentration of the supernatant was determined with Coomassie Protein Assay Reagent (Pierce) and samples prepared and analyzed as described (Kravtsov et al. 2016). Quantification of surface‐labeled proteins was performed with Quantity One image analysis software.
# VASP was originally characterized as a substrate for both PKG (cGMP‐dependent kinase) and PKA (cAMP‐dependent kinase). […] To determine linaclotide‐induced activation of cGKII, we determined the phosphorylation of VASP^Ser239 30 min following treatment either with vehicle or linaclotide (1 μmol/L and 3.27 μmol/L; the 3.27 μmol/L concentration is equivalent to the 5 μg dose of linaclotide that was used in vivo in the rat jejunum loop). The membrane permeant cGMP analog, 8 Br‐cGMP (0.2 mmol/L, 1 mmol/L), was used as a positive control.
# human colonic mucosa = experiment: Transepithelial short circuit current (Isc) across human ascending colonic mucosa, Ussing chamber; details: human ascending colon, linaclotide 30 nmol/L and 1000 nmol/L, apical, pH 7.4, 37°C; mean ± SEM (n = 12)
# GC‐C [9] = details: ref Bryant et al. 2010; Busby et al. 2010; cited from earlier work
# From the text: The synthetic GC‐C agonist peptide, linaclotide, is an FDA‐approved drug for adult patients with Irritable Bowel Syndrome with Constipation (IBS‐C) and Chronic Idiopathic Constipation (CIC) (Bryant et al. 2010; Busby et al. 2010). IBS‐C is a highly prevalent, chronic functional gastrointestinal disorder with a global prevalence estimated to range from 5% to 20% (Mayer 2008; Quigley et al. 2012).
# CFTR [10] = experiment: Surface biotinylation of CFTR in C2BBe cells; format: cell-based, human; details: linaclotide 1 μmol/L and 3.27 μmol/L, 30 min
# [11] = IBMX 1 mmol/L 10 min, linaclotide 0.001–10 μmol/L 30 min, 37°C, pH 7, cGMP in supernatants by LC/MS/MS, n = 4
# [12] = linaclotide 0.001–10 μmol/L, 30 min, IBMX 1 mmol/L
substance,measurement,setting,value
linaclotide,"surface CFTR (surface biotinylation, Western blot)",CFTR [1],highest levels of surface CFTR; also recorded: robust increase in surface CFTR when compared to the untreated intestine
same,cGMP level in supernatant (extracellular),GC‐C [2],"greater after 30 min, compared to levels measured after 60 min"
same,cGMP level in tissue (intracellular),GC‐C [2],"greater after 30 min, compared to levels measured after 60 min"
same,cGMP level in supernatant (extracellular),GC‐C [2]; listed as Linaclotide,increased levels of both intracellular and extracellular cGMP
same,cGMP level in tissue (intracellular),GC‐C [2]; listed as Linaclotide,increased levels of both intracellular and extracellular cGMP
same,linaclotide-induced transepithelial ion current (Isc),[3],induced a transepithelial ion current at both concentrations
same,cGMP efflux,mouse colonic mucosa,induce cGMP efflux
same,cGMP efflux,rat colonic mucosa,induce cGMP efflux
same,antinociceptive effect,[4],antinociceptive effects in several models of colonic hypersensitivity
same,cGMP efflux,Caco‐2 cell line,induce cGMP efflux
same,CFTR localization in brush border (confocal),CFTR [5],accumulation of CFTR in the brush border
same,stability of linaclotide in tissue supernatants,[6],stable under these conditions
same,CFTR recruitment to cell surface,CFTR [7],increased cell surface CFTR levels; also recorded: robust recruitment of CFTR to the apical surface; also recorded: robust increase in surface levels of CFTR compared to untreated control cells
same,EC50,[8],9.2 nM
same,EC80 for cGMP synthesis (approximate),C2BBe cells,~1000 nM
same,EC100 for cGMP synthesis (approximate),C2BBe cells,~3 µmol/L
same,EC50,C2BBe cells; [11],523 nM
same,cGMP synthesis,C2BBe cells; [12],concentration dependently stimulated cGMP synthesis
same,EC80 for cGMP synthesis (approximate),T84 cells,~1000 nM
same,EC100 for cGMP synthesis (approximate),T84 cells,~3 µmol/L
same,EC50,T84 cells; [11],772 nM
same,cGMP synthesis,T84 cells; [12],concentration dependently stimulated cGMP synthesis
same,phosphorylation of VASP Ser239,cGKII (PKGII),more robust phosphorylation of VASP^Ser239 compared to 8Br‐cGMP; also recorded: higher levels of VASP^Ser239 phosphorylation compared to the lower concentration
same,phosphorylation of VASP Ser239,cGKII (PKGII); listed as Linaclotide,more strongly enhanced phosphorylation of VASP^Ser239 compared to the cGMP analog 8‐Br‐cGMP
same,linaclotide-induced transepithelial ion current (Isc),human colonic mucosa,induced transepithelial ion current at concentrations of 30 nmol/L and 1000 nmol/L
same,fluid secretion,GC‐C [9],increased fluid secretion
same,intestinal transit,GC‐C [9],accelerated intestinal transit
same,CFTR recruitment to cell surface,CFTR [10],increased cell surface CFTR levels; also recorded: robust recruitment of CFTR to the apical surface; also recorded: robust increase in surface levels of CFTR compared to untreated control cells; also recorded: higher surface CFTR levels in C2BBe cells compared to T84 cells
